Data on two compounds can be found in ChEMBL document CHEMBL1201862, “PubChem BioAssay data set” (2004).

Some test systems named below: 786-0; A498; BT-549; COLO 205; HCT-15; HOP-92; Hs-578T; IGROV-1; M14; Malme-3M; NCI-H23; NCI-H460; NCI-H522; OVCAR-3; SK-MEL-5; SK-OV-3; SNB-75; SNB-78; SW-620; TK-10.
Holding throughout (assay): DTP human tumour cell line panel, 48 h

Molecules are shown by their SMILES.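 Cells were grown in 96-well plates and exposed to each compound for 48 hours at five concentrations; endpoints were interpolated linearly between bracketing concentrations, or set to the highest concentration if not reached. GI50 is the concentration that inhibits growth by half.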 Active and inactive are the calls of the source. Rule as the data show it: active = GI50 up to about 1.1 µM and inactive = higher.

As a reminder, the GI50 is the concentration giving 50% growth inhibition. As for `COc1ccc2c(c1)[C@@H](NC(C)=O)CCc1cc(OC)c(OC)c(OC)c1-2`, the 50% growth inhibitory concentration (GI50) is 0.019 µM (active) in the assay on 786-0; 0.0143 µM (active) in the assay with A498; 1.85 µM (inactive) in the assay on BT-549; 0.0135 µM (active) in the assay on COLO 205; 0.015 µM in the assay on HCT-15; 0.0219 µM (active) with HOP-92. Also, the GI50 in the assay with Hs-578T was 0.0169 µM (active); in the assay on IGROV-1, 0.0173 µM (active); in the assay on M14, 0.0166 µM (active); in the assay with Malme-3M, 0.0216 µM (active); in the assay with NCI-H23, 0.0143 µM (active); with NCI-H460, 0.0168 µM (active). Further, the GI50 in the assay on NCI-H522 is 0.013 µM (active); in the assay with OVCAR-3 it was 0.0144 µM (active); with SK-MEL-5, 0.019 µM (active); in the assay on SK-OV-3, 0.129 µM (active); in the assay with SNB-75, 0.0258 µM (active); with SNB-78, 0.0107 µM (active). For the same compound, the GI50 was 0.0172 µM (active) with SW-620 and 2.54 µM (inactive) in the assay on TK-10.
With `CS(=O)(=O)OCCCCOS(C)(=O)=O` [BUSULFAN], the GI50 is 228 µM (inactive) in the assay with 786-0; 233 µM (inactive) in the assay with A498; > 1000 µM (inactive) in the assay on BT-549; 222 µM (inactive) with COLO 205; 219 µM with HCT-15; 198 µM (inactive) in the assay with HOP-92. Also, the GI50 in the assay with Hs-578T is > 250 µM (inactive); with IGROV-1, > 212 µM (inactive); in the assay on M14 it was 236 µM (inactive); in the assay with Malme-3M it was 242 µM (inactive); in the assay on NCI-H23 it was 230 µM (inactive); with NCI-H460 it was 95.9 µM (inactive). In addition, the GI50 with NCI-H522 is 239 µM (inactive); in the assay with OVCAR-3, > 250 µM (inactive); in the assay on SK-MEL-5, 232 µM (inactive); with SK-OV-3 it was > 237 µM (inactive); in the assay on SNB-75, 144 µM (inactive); in the assay on SNB-78, 212 µM (inactive). The GI50 with SW-620 is 224 µM (inactive); with TK-10, > 250 µM (inactive).
